Data on 19 compounds can be found in patent publication US10689378B2, “Triazolopyridine compounds and uses thereof” (Novartis AG, priority 2016, dated 2020).

What is called IC50 is the point on the concentration scale where inhibition reaches its midpoint.

For one assay, the target named is T1, EED (1-441)-His protein (Homo sapiens, UniProt O75530).
T1 construct: 30 nM EED (1-441)-His protein
Nature of the assay: EED-H3K27Me3 peptide competition binding assay by AlphaScreen. As to conditions: read-out: (a) IC50, EED Alphascreen binding Qualified. As to the method:
EED-H3K27Me3 Peptide Competition Binding Assay by AlphaScreen (α-Screen)
To assess the compounds' potency in the EED-H3K27Me3 competition binding assay, compounds were serially diluted 3-fold in DMSO to obtain a total of twelve concentrations. Then compounds at each concentration (75 nL of each) were transferred by Mosquito into a 384-well Perkin Elmer ProxiPlate 384 plus plates. 8 uL of solutions containing 30 nM EED (1-441)-His protein and 15 nM biotin-H3K27Me3 (19-33) peptide in the buffer (25 mM HEPES, pH 8, 0.02% Tween-20, 0.5% BSA) were added to the wells and then incubated with compound for 20 min. AlphaScreen detection beads mix was prepared immediately before use by mixing nickel chelate acceptor beads and streptavidin donor beads in a 1:1 ratio (Perkin Elmer, Product No. 6760619C/M/R) into the buffer described above. Then 4 μL of detection beads mix was added to the plate and incubate in the dark at the rt for 1 h. The final concentration of donor and acceptor beads was 10 μg/mL for each. Plates were read on EnVision (PerkinElmer) using the AlphaScreen setting adapted for optimal signal detection with a 615 nm filter, after sample excitation at 680 nm. The emission signal at 615 nm was used to quantify compounds inhibition. AlphaScreen signals were normalized based on the reading coming from the positive (maximum signal control) and negative controls (minimum signal control) to give percentage of activities left. The data were then fit to a dose response equation using the program Helios (Novartis) to get the IC50 values. Helios is a Novartis in-house assay data analysis software using the methods described by Normolle, D. P., Statistics in Medicine, 12:2025-2042 (1993); Formenko, I. et al, Computer Methods and Programs in Biomedicine, 82, 31-37 (2006); Sebaugh, J. L., Pharmaceutical Statistics, 10:128-134 (2011); Kelly, C. et al., Biometrics, 46(4):1071-1085 (1990); and Kahm, M. et al., Journal of Statistical Software, 33 (7): (2010) (grofit: Fitting Biological Growth Curves with R, pages 1-21, available at http://www.jstatsoft.org/).
For orientation: Bead proximity is the source of the signal in Alpha formats.

In assay [1] the test system is H3K27 methylation in G401 cell. Nature of the assay: ELISA (H3K27 methylation) assay in G401 cells. Type of assay: cell-based, human. As to conditions: Homo sapiens, G-401, read-out: (c) IC50, ELISA Qualified. As for the experimental part:
Compounds of the present invention were assessed for their ability to inhibit PRC2 activity in a pentameric complex of EZH2, SUZ12, EED, Rbap48 and AEBP in biochemical assays. The ability of compounds of the present invention to inhibit cellular activity of PRC2 was assessed by analysing histone H3 lysine 27 methylation in human cell lines. The ability of compounds of the present invention to inhibit cancers was derived from their ability to modulate activity in human cancer cell lines bearing specific dependence to PRC2 activity to maintain cancerous growth.
ELISA (H3K27 Methylation) Assay
Representative compounds of the present invention were serially and separately diluted 3-fold in DMSO to obtain a total of eight or twelve concentrations. Then the compounds were added to G401 cell cultured in 384-well plate at 1:500 dilution to obtain the highest concentration of 20 μM. The cells were further cultured for 48 h before ELISA procedure.
Histone extraction: Cells, in 384-well plate, were washed with PBS (10×PBS buffer (80 g NaCl (Sigma, S3014), 2 g KCl (Sigma, 60128), 14.4 g Na2HPO4 (Sigma, S5136), 2.4 g KH2PO4 (Sigma, P9791) to 1 L water, pH to 7.4) and lysed with the addition of lysis buffer (0.4N HCl; 45 μL per well). The plate was gently agitated at 4° C. for 30 min. The cell lysate was neutralized with neutralization buffer (0.5 M sodium phosphate dibasic, pH 12.5, 1 mM DTT; 36 μL per well). The plate was agitated to ensure the lysates were well mixed prior to the ELISA protocol.
ELISA protocol: Cell lysates were transferred to the wells of a 384-well plate and the final volume was adjusted to 50 μL per well with PBS. The plate was sealed, centrifuged at 2,000 rpm for 2 min and incubated at 4° C. for about 16 h. The plate was washed with TBST buffer (1×TBS (10×TBS: 24.2 g Tris (Sigma, T6066), 80 g NaCl (Sigma, S3014) to 1 L of water and adjust pH to 7.6 with HCl) with 0.1% Tween-20). Blocking buffer (TBST, 5% BSA; 50 μL per well) was added and the plate was incubated for 1 h at rt. The blocking buffer was removed and primary antibody was added (30 μL per well). The following dilutions were performed with blocking buffer: for anti-H3K27me3 antibody (Cell Signaling Technology, #9733), dilution was 1:1000; for anti-H3K27me2 antibody (Cell Signaling Technology, #9288), dilution was 1:100; for anti-H3 antibody (Abcam, Cat #24834), dilution was 1:1000. The primary antibody was incubated in the plate at rt for 1 h. The wells were washed with TBST and incubated with secondary antibody for 1 h at rt. For secondary antibodies, the following dilutions were carried out with blocking buffer: anti-rabbit antibody (Jackson ImmunoResearch, #111-035-003), dilution was 1:2000; and anti-mouse antibody (Cell signaling technology, #7076), dilution was 1:1000. After 1 h of incubation at rt, the wells were washed with TBST. ECL substrate (Pierce, #34080) was added at 30 μL per well and the plates were centrifuged at 2,000 rpm for 2 min. The signal was read using a PerkinElmer Envision Reader. The H3K27 methylation readouts were normalized using H3 signal and then percentage inhibition was calculated against the samples treated with DMSO. The data were then fit to a dose response curve using the program Helios to get the IC50 values of the test compound.
(In general: An ELISA detects its analyte on a solid surface through an enzyme-linked reagent.)

T1 sequence (O75530 whole entry): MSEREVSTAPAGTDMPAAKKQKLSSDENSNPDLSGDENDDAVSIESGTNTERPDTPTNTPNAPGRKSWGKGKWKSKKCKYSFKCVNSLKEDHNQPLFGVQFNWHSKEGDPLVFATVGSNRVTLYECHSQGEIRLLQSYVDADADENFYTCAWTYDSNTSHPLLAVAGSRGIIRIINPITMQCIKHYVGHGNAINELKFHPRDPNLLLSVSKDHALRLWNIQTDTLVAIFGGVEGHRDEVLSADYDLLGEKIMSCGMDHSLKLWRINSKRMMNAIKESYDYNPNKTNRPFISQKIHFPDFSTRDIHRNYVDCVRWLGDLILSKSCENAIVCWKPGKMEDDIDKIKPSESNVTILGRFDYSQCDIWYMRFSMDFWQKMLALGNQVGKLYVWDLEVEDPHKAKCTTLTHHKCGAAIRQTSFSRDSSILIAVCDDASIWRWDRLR

`COc1ccccc1CNc1ccc(-c2ccc(NC(C)=O)cc2)c2nncn12` [Example 80, N-(4-(5-((2-methoxybenzyl)amino)-[1,2,4]triazolo[4,3-a]pyridin-8-yl)phenyl) acetamide]: the IC50 on EED (1-441)-His protein was 0.225 µM; in assay [1] it was 0.779 µM.

As to `COc1ccc(F)cc1CNc1ccc(-c2ccc(CN(C)C)cc2)c2nncn12` [Example 81, 8-(4-((dimethylamino)methyl)phenyl)-N-(5-fluoro-2-methoxybenzyl)-[1,2,4]triazolo[4,3-a]pyridin-5-amine], the IC50 on EED (1-441)-His protein was 0.387 µM; in assay [1], 0.928 µM.

Take `COc1cc(F)ccc1CNc1ccc(-c2ccc(S(=O)(=O)N(C)C)cc2)c2nncn12` [Example 84, 4-(5-((4-fluoro-2-methoxybenzyl)amino)-[1,2,4]triazolo[4,3-a]pyridin-8-yl)-N,N-dimethylbenzene sulfonamide]: the IC50 turned out to be 0.177 µM at EED (1-441)-His protein and 1.18 µM in assay [1].

Consider `COc1cc(F)ccc1CNc1ccc(-c2ccc(NS(C)(=O)=O)cc2)c2nncn12` [Example 85, N-(4-(5-((4-fluoro-2-methoxybenzyl)amino)-[1,2,4]triazolo[4,3-a]pyridin-8-yl)phenyl)methane sulfonamide], for which the values for the IC50 (on EED (1-441)-His protein; in assay [1]) were 0.186 µM and 1.03 µM, respectively.

Take `COc1c(F)cccc1CNc1ccc(-c2ccc(CN(C)C)cc2)c2nncn12` [Example 86, 8-(4-((dimethylamino)methyl)phenyl)-N-(3-fluoro-2-methoxybenzyl)-[1,2,4] triazolo[4,3-a]pyridin-5-amine]: the IC50 was determined as 0.218 µM at EED (1-441)-His protein and 0.529 µM in assay [1].

On to `COc1cc(F)ccc1CNc1ccc(-c2ccc(N3CCN(C(C)C)CC3)nc2)c2nncn12` [Example 88, N-(4-fluoro-2-methoxybenzyl)-8-(6-(4-isopropylpiperazin-1-yl)pyridin-3-yl)-[1,2,4] triazolo[4,3-a]pyridin-5-amine], for which the IC50 at EED (1-441)-His protein is 0.178 µM; in assay [1], 0.5 µM.

Consider `COc1cc(F)ccc1CNc1ccc(-c2ccc(S(N)(=O)=O)cc2)c2nncn12` [Example 89, 4-(5-((4-fluoro-2-methoxybenzyl)amino)-[1,2,4]triazolo[4,3-a]pyridin-8-yl)benzenesulfonamide], for which the IC50 is 0.132 µM on EED (1-441)-His protein and 1.48 µM in assay [1].

As for `COc1cc(F)ccc1CNc1ccc(-c2cnc(N3CCN(C(C)C)CC3)c(C(F)(F)F)c2)c2nncn12` [Example 90, N-(4-fluoro-2-methoxybenzyl)-8-(6-(4-isopropylpiperazin-1-yl)-5-(trifluoromethyl)pyridin-3-yl)-[1,2,4]triazolo[4,3-a] pyridin-5-amine], the IC50 at EED (1-441)-His protein amounted to 0.41 µM; in assay [1], 2.13 µM.

In the case of `COc1cc(F)ccc1CNc1ccc(-c2ccncc2)c2nncn12` [Example 92, N-(4-fluoro-2-methoxybenzyl)-8-(pyridin-4-yl)-[1,2,4]triazolo[4,3-a]pyridin-5-amine], the values for the IC50 (at EED (1-441)-His protein; in assay [1]) were 0.138 µM and 0.299 µM, respectively.

On to `COc1cc(F)ccc1CNc1ccc(-c2cccnc2)c2nncn12` [Example 93, N-(4-fluoro-2-methoxybenzyl)-8-(pyridin-3-yl)-[1,2,4]triazolo[4,3-a]pyridin-5-amine], for which the IC50 on EED (1-441)-His protein is 0.162 µM; in assay [1], 0.4 µM.

As to `COc1ccccc1CNc1ccc(-c2cncc(S(C)(=O)=O)c2)c2nncn12` [Example 95, N-(2-methoxybenzyl)-8-(5-(methylsulfonyl)pyridin-3-yl)-[1,2,4]triazolo[4,3-a] pyridin-5-amine], the IC50 at EED (1-441)-His protein was found to be 0.177 µM; in assay [1] it was 0.164 µM.

As for `COc1cc(F)ccc1CNc1ccc(-c2ccc(C(=O)N3CCCC3)cc2)c2nncn12` [Example 96, (4-(5-((4-fluoro-2-methoxy benzyl)amino)-[1,2,4]triazolo[4,3-a]pyridin-8-yl)phenyl)(pyrrolidin-1-yl) methanone], the figures for the IC50 (at EED (1-441)-His protein; in assay [1]) were 0.105 µM and 0.253 µM, respectively.

On to `COc1cc(F)ccc1CNc1ccc(-c2cnc(N3CCN(C(C)C)CC3)c(Cl)c2)c2nncn12` [Example 97, 8-(5-chloro-6-(4-isopropylpiperazin-1-yl)pyridin-3-yl)-N-(4-fluoro-2-methoxybenzyl)-[1,2,4]triazolo[4,3-a] pyridin-5-amine], for which the IC50 stood at 0.105 µM on EED (1-441)-His protein and 0.775 µM in assay [1].

With `COc1cc(CNc2ccc(-c3ccc(CN(C)C)cc3)c3nncn23)c(F)cc1F` [Example 98, N-(2,4-difluoro-5-methoxybenzyl)-8-(4-((dimethylamino)methyl)phenyl)-[1,2,4]triazolo[4,3-a] pyridin-5-amine], the IC50 on EED (1-441)-His protein was found to be 0.359 µM; in assay [1] it was 0.287 µM.

As for `COc1ccc(F)c(CNc2ccc(-c3ccncc3)c3nncn23)c1` [Example 99, N-(2-fluoro-5-methoxybenzyl)-8-(pyridin-4-yl)-[1,2,4]triazolo[4,3-a] pyridin-5-amine], the IC50 at EED (1-441)-His protein stood at 0.255 µM; in assay [1] it was 0.385 µM.

With `COc1cc(F)c(F)cc1CNc1ccc(-c2ccc(CN(C)C)cc2)c2nncn12` [Example 103, N-(4,5-difluoro-2-methoxybenzyl)-8-(4-((dimethylamino)methyl)phenyl)-[1,2,4]triazolo[4,3-a] pyridin-5-amine], the figures for the IC50 (on EED (1-441)-His protein; in assay [1]) were 2.86 µM and 8.21 µM, respectively.

As for `COc1cc(F)ccc1CNc1ccc(-c2cnc(N3CCN(C(C)C)CC3)nc2)c2nncn12` [Example 104, N-(4-fluoro-2-methoxybenzyl)-8-(2-(4-isopropylpiperazin-1-yl)pyrimidin-5-yl)-[1,2,4]triazolo[4,3-a] pyridin-5-amine], the IC50 on EED (1-441)-His protein came to 0.16 µM; in assay [1], 0.132 µM.

Regarding `COc1ccccc1CNc1ccc(-c2c(C)nn(C)c2C)c2nncn12` [Example 110, N-(2-methoxybenzyl)-8-(1,3,5-trimethyl-1H-pyrazol-4-yl)-[1,2,4]triazolo[4,3-a] pyridin-5-amine], the IC50 on EED (1-441)-His protein worked out at 0.127 µM; in assay [1], 0.0742 µM.

With `COc1ccc(F)cc1CNc1ccc(-c2ccc(S(C)(=O)=O)nc2)c2nncn12` [Example 115, N-(5-fluoro-2-methoxybenzyl)-8-(6-(methylsulfonyl)pyridin-3-yl)-[1,2,4]triazolo[4,3-a] pyridin-5-amine], the IC50 on EED (1-441)-His protein worked out at 0.831 µM; in assay [1], 0.696 µM.
